Measured values from patent publication US4225593A, “Growth promotion” (Imperial Chemical Industries Limited, priority 1977, dated 1980).

How the values were obtained:
rumen fluid = experiment: Inhibition of methane production and shift of volatile fatty acids in incubated rumen fluid (in vitro fermentation of hay); set-up: species or system steers; details: for % methane in total gas: 39° C., 15-16 hours, control 8.37; for Ac/Bu: acetate/butyrate, control 3.92; for Ac/Pr: acetate/propionate, control 1.90; for % inhibition of methane / Ac/Bu, expressed as percentage of untreated controls / Ac/Pr, expressed as percentage of untreated controls: relative to untreated controls; for Ac/Bu, expressed as percentage of untreated controls / Ac/Pr, expressed as percentage of untreated controls: signed values
Protocol: Rumen fluid is collected on a regular routine basis from two steers, which are fed on the same hay-plus-concentrate diet. Sampling time is standarised as far as possible, and the fluid from the two animals is pooled on a 50/50 basis. Large particulate matter is removed by filtering the pooled fluid through four layers of muslin cloth. The filtrate is then diluted in the ratio of one volume of filtrate to three volumes of an artificial rumen fluid (prepared as described by G. L. Bales et al., Journal of Diary Science, 1976, volume 59, page 1850, but omitting acetic acid), and the pH of the mixture is adjusted to 6.9-7.0 with saturated aqueous sodium carbonate solution. Aliquots (50 ml.) of this mixture are dispensed into 100 ml. conical flasks containing dried ground hay (0.5 g.), and each flask is used to test a test compound at a particular concentration.
The test compound is added to the conical flask as a solution in ethanol, the flask is flushed with carbon dioxide gas, stoppered with a suba-seal, and incubated at 39° C. for 15-16 hours. After one hour, a narrow bore needle is inserted through the suba-seal to relieve the gas pressure, and the needle is withdrawn 30 minutes before the incubation is ended. Fermentation is then stopped by placing the flask in ice, and after 15 minutes cooling, the gas over the liquid is analysed for methane by gas chromatrography. The flask contents are then filtered through a previously dried and weighed sintered glass funnel, the funnel is oven-dried and, by difference, the weight of hay digested is determined. (Blank flasks containing no hay are treated similarly to determine non-cellulose residue). Three samples of the filtrate are analysed by gas chromatography for VFAs, and by comparison with the previously determined, pre-incubationlevel of VFAs, the net VFAs (acetate, propionate and butyrate) produced during the incubation is determined.
The test process described in Example 2 was repeated, comparing aplasmomycin with Factor B and C. The following results were obtained, expressed as percentages of the values obtained in untreated controls: […]

[1] = test system: rumen metabolism of sheep; experiment: Short term effects on the rumen metabolism of sheep (rumen V.F.A. composition); type: in vivo; details: 6 hours after treatment
Protocol: The rumen fermentation patterns of a group of sheep were stabilised by feeding them a standard diet of dried grass (2×500 g. per day) for some months. Six test animals were used for each inclusion level of each test compound. […] Samples of rumen fluid were collected by stomach tube from each animal 6 hours after treatment, and analysed by gas-chromatography for acetate, propionate and butyrate.

Eimeria tenella = experiment: Anticoccidial activity: preventing coccidial growth in cultures of chick kidney cells inoculated with sporozites; type: cell-based; details: for anticoccidial activity (in words): cultures of chick kidney cells
chick kidney cells = experiment: Toxic effects on the host cells (chick kidney cells) in the anticoccidial test; type: cell-based; details: only shows toxic effects at this concentration
[2] = Day 4, 0.25 mg/kg, control 10.2
[3] = Day 4, 0.25 mg/kg, control 24.0
[4] = Day 4, 0.25 mg/kg, control 64.5
[5] = Day 7, 0.25 mg/kg, control 10.7
[6] = Day 7, 0.25 mg/kg, control 22.9
[7] = Day 7, 0.25 mg/kg, control 65.6

## C[C@@H]1CC[C@@H]2O[C@]13O[B-]14O[C@H]3C(=O)O[C@H]3C[C@@H](/C=C/C[C@@H](O)C(C)(C)[C@@H]5CC[C@@H](C)[C@](O5)(O1)[C@@H](O4)C(=O)O[C@H]1C[C@@H](/C=C/C[C@@H](O)C2(C)C)O[C@@H]1C)O[C@@H]3C.[Na+] [Aplasmomycin, aplasmomycin]
Rumen fluid; 0.1 μg./ml.
  % methane in total gas: 7.87%
  Ac/Bu: 4.22
  Ac/Pr: 1.63
Rumen fluid; 0.3 μg./ml.
  % methane in total gas: 5.72%
  Ac/Bu: 4.75
  Ac/Pr: 1.36
Rumen fluid; 0.5 μg./ml.
  % methane in total gas: 4.87%
  Ac/Bu: 4.56
  Ac/Pr: 1.29
Rumen fluid; 1 μg./ml.
  % methane in total gas: 3.81%
  Ac/Bu: 4.26
  Ac/Pr: 1.26
Rumen fluid; 3 μg./ml.
  % methane in total gas: 2.58%
  Ac/Bu: 3.52
  Ac/Pr: 1.34
Rumen fluid; 1 ppm
  % inhibition of methane: 57%
  Ac/Bu, expressed as percentage of untreated controls: -36 percentages
  Ac/Pr, expressed as percentage of untreated controls: -41 percentages
Rumen fluid; 3 ppm
  % inhibition of methane: 69%
  Ac/Bu, expressed as percentage of untreated controls: -49 percentages
  Ac/Pr, expressed as percentage of untreated controls: -40 percentages
Rumen fluid; rumen fluid, weight of hay digested
  effect on the overall digestive process (in words): without at the same time depressing the overall digestive process
[1]; [2]
  Molar % rumen V.F.A.: Butyrate: 9.8 Molar %
[1]; [3]
  Molar % rumen V.F.A.: Propionate: 25.1 Molar %
[1]; [4]
  Molar % rumen V.F.A.: Acetate: 63.7 Molar %
[1]; Day 4, 0.5 mg/kg, control 10.2
  Molar % rumen V.F.A.: Butyrate: 9.9 Molar %
[1]; Day 4, 0.5 mg/kg, control 24.0
  Molar % rumen V.F.A.: Propionate: 25.5 Molar %
[1]; Day 4, 0.5 mg/kg, control 64.5
  Molar % rumen V.F.A.: Acetate: 63.4 Molar %
[1]; [5]
  Molar % rumen V.F.A.: Butyrate: 9.9 Molar %
[1]; [6]
  Molar % rumen V.F.A.: Propionate: 24.8 Molar %
[1]; [7]
  Molar % rumen V.F.A.: Acetate: 63.8 Molar %
[1]; Day 7, 0.5 mg/kg, control 10.7
  Molar % rumen V.F.A.: Butyrate: 9.2 Molar %
[1]; Day 7, 0.5 mg/kg, control 22.9
  Molar % rumen V.F.A.: Propionate: 26.6 Molar %
[1]; Day 7, 0.5 mg/kg, control 65.6
  Molar % rumen V.F.A.: Acetate: 62.6 Molar %
Eimeria tenella
  anticoccidial activity (in words): show anticoccidial activity
Eimeria tenella; cultures of chick kidney cells inoculated with sporozites
  concentration showing activity against Eimeria tenella: 0.037 ppm
Chick kidney cells
  concentration showing toxic effects on the host cells: 9 ppm

## CC(=O)OC1C/C=C/C2CC(OC(=O)C3O[B-]45OC(C(=O)OC6CC(/C=C/CC(O)C(C)(C)C7CCC(C)C3(O7)O4)OC6C)C3(OC(CCC3C)C1(C)C)O5)C(C)O2 (centres unmarked) [Factor B]
Rumen fluid; 1 ppm
  % inhibition of methane: 63%
  Ac/Bu, expressed as percentage of untreated controls: +21 percentages
  Ac/Pr, expressed as percentage of untreated controls: -48 percentages
Rumen fluid; 3 ppm
  % inhibition of methane: 76%
  Ac/Bu, expressed as percentage of untreated controls: -18 percentages
  Ac/Pr, expressed as percentage of untreated controls: -45 percentages
[1]; [2]
  Molar % rumen V.F.A.: Butyrate: 11.3 Molar %
[1]; [3]
  Molar % rumen V.F.A.: Propionate: 22.3 Molar %
[1]; [4]
  Molar % rumen V.F.A.: Acetate: 65.1 Molar %
[1]; Day 4, 0.5 mg/kg, control 10.2
  Molar % rumen V.F.A.: Butyrate: 11.3 Molar %
[1]; Day 4, 0.5 mg/kg, control 24.0
  Molar % rumen V.F.A.: Propionate: 22.4 Molar %
[1]; Day 4, 0.5 mg/kg, control 64.5
  Molar % rumen V.F.A.: Acetate: 65.0 Molar %
[1]; [5]
  Molar % rumen V.F.A.: Butyrate: 11.7 Molar %
[1]; [6]
  Molar % rumen V.F.A.: Propionate: 22.1 Molar %
[1]; [7]
  Molar % rumen V.F.A.: Acetate: 63.5 Molar %
[1]; Day 7, 0.5 mg/kg, control 10.7
  Molar % rumen V.F.A.: Butyrate: 8.9 Molar %
[1]; Day 7, 0.5 mg/kg, control 22.9
  Molar % rumen V.F.A.: Propionate: 25.9 Molar %
[1]; Day 7, 0.5 mg/kg, control 65.6
  Molar % rumen V.F.A.: Acetate: 63.5 Molar %
Eimeria tenella
  anticoccidial activity (in words): show anticoccidial activity

## CC[C@@]1([C@@H]2O[C@@H]([C@H]3O[C@@](O)(CO)[C@H](C)C[C@@H]3C)C[C@@H]2C)CC[C@H]([C@]2(C)CC[C@]3(C[C@H](O)[C@@H](C)[C@@H]([C@@H](C)[C@@H](OC)[C@H](C)C(=O)O)O3)O2)O1 [Monensin, monensin, reference compound]
Rumen fluid; 0.1 μg./ml.
  % methane in total gas: 8.35%
  Ac/Bu: 4.22
  Ac/Pr: 1.80
Rumen fluid; 0.3 μg./ml.
  % methane in total gas: 7.53%
  Ac/Bu: 4.11
  Ac/Pr: 1.65
Rumen fluid; 0.5 μg./ml.
  % methane in total gas: 6.75%
  Ac/Bu: 4.03
  Ac/Pr: 1.61
Rumen fluid; 1 μg./ml.
  % methane in total gas: 5.62%
  Ac/Bu: 3.21
  Ac/Pr: 1.51
Rumen fluid; 3 μg./ml.
  % methane in total gas: 4.53%
  Ac/Bu: 3.39
  Ac/Pr: 1.54
[1]; [2]
  Molar % rumen V.F.A.: Butyrate: 9.9 Molar %
[1]; [3]
  Molar % rumen V.F.A.: Propionate: 28.5 Molar %
[1]; [4]
  Molar % rumen V.F.A.: Acetate: 60.5 Molar %
[1]; Day 4, 0.5 mg/kg, control 10.2
  Molar % rumen V.F.A.: Butyrate: 11.3 Molar %
[1]; Day 4, 0.5 mg/kg, control 24.0
  Molar % rumen V.F.A.: Propionate: 27.8 Molar %
[1]; Day 4, 0.5 mg/kg, control 64.5
  Molar % rumen V.F.A.: Acetate: 59.8 Molar %
[1]; [5]
  Molar % rumen V.F.A.: Butyrate: 11.4 Molar %
[1]; [6]
  Molar % rumen V.F.A.: Propionate: 26.1 Molar %
[1]; Day 7, 0.5 mg/kg, control 10.7
  Molar % rumen V.F.A.: Butyrate: 12.6 Molar %
[1]; Day 7, 0.5 mg/kg, control 22.9
  Molar % rumen V.F.A.: Propionate: 26.2 Molar %
[1]; Day 7, 0.5 mg/kg, control 65.6
  Molar % rumen V.F.A.: Acetate: 60.2 Molar %

## CC(=O)OC1C/C=C/C2CC(OC(=O)C3O[B-]45OC(C(=O)OC6CC(/C=C/CC(OC(C)=O)C(C)(C)C7CCC(C)C3(O7)O4)OC6C)C3(OC(CCC3C)C1(C)C)O5)C(C)O2 (centres unmarked) [Factor C]
Rumen fluid; 1 ppm
  % inhibition of methane: 15%
  Ac/Bu, expressed as percentage of untreated controls: +18 percentages
  Ac/Pr, expressed as percentage of untreated controls: -33 percentages
Rumen fluid; 3 ppm
  % inhibition of methane: 44%
  Ac/Bu, expressed as percentage of untreated controls: +22 percentages
  Ac/Pr, expressed as percentage of untreated controls: -41 percentages
Eimeria tenella
  anticoccidial activity (in words): show anticoccidial activity
